Like-named read-outs stand apart in the source and are kept apart here. Where no end group is shown, it is not given here.
What was measured:
HIV-1 RT [1] = target: T1, HIV-1 RT (Human immunodeficiency virus type 1 group M subtype B, UniProt P12497); assay: RT pull-down with peptide-CNBr Sepharose beads, H9 cell lysates; assay type: binding; conditions: Western blotting
T1 construct: asymmetric heterodimer that consists of two subunits, p66 and p51; expressed in transfected cells; host or cells: H9 cells (ATCC HTB-176) stably transfected with pNL4.3 V-R+
Description: For RT pull down experiments, PAW (SEQ ID NO: 18) was incubated with 500 μl of activated CNBr-activated Sepharose 4B beads at 4° C. overnight. After centrifugation, supernatants were removed and the beads were incubated with Glycine pH.8.0 for 2 hrs at 4° C. with gentle stirring. The beads were then washed with 0.1 M sodium acetate buffer (pH 4.0), then 0.5 M Bicarbonate buffer, and finally in PBS, three times each. The peptide bound to the beads were then saturated for 30 min in PBS/BSA 0.1% and then incubated for 1 h at 4° C. with equal amounts of H9 cells lysed for […] on ice in Lysis buffer (Tris 20 mM, pH 7.2, NaCl 400 mM, EDTA 1 mM, DTT 1 mM, Protease inhibitors EDTA free) and sonicated 2×5 sec. at 20%. Beads were washed with Lysis buffer then twice with PBS and the bound proteins were finally separated on 15% SDS-PAGE gel and analyzed by Western Blotting using monoclonal 8C4 anti-HIV-1 RT antibody.

HeLa cells = assay: Cellular uptake of FITC-labelled peptide, fluorescence microscopy; assay type: cell-based; conditions: for entry of free peptide into cells: peptide alone, without Pep-1
Description: HeLa cells were cultured in Dulbecco's modified Eagle's medium (DMEM) supplemented with 10% fetal calf serum at 37° C. in a humidified atmosphere containing 5% CO2.). H9 cell lines (ATCC number: HTB-176) were stably transfected with pNL4.3 V−R+plasmid (AIDS Research Reference Reagent Program, National Institutes of Health (NIH), USA) and therefore expressed in a constitutive manner all HIV-1 proteins but Env encoded proteins. They were cultured in RPMI-1640 medium supplemented with 2 mM glutamine, 10% (w/v) foetal calf serum (FCS), 1% antibiotics (streptomycin […], penicillin, 10 000 IU/ml), as well as G418 1 mg/ml. Cells were grown on glass coverslips to 75% confluency, then transfected with pcDNA3-p66RT plasmid (this plasmid contains the 66 subunit of HIV-1 Reverse Transcriptase cloned in pcDNA3.1 (+) vector (Invitrogen, USA), using HindIII and BamHI restriction site) using Lipofectamine 2000 reagent according to manufacturer' instructions (Invitrogen). Hela cells were subsequently cultured for 32 h, before incubation with FITC-PAW or FITC-PAW/Pep-1 (complex obtained at a molar ratio 1/10) for 1 h. Coverslips were extensively rinsed with PBS and cells were fixed in 4% paraformaldehyde for […] and permeabilized in 0.2% Triton. After saturation in PBS supplemented with bovine serum albumine 1% for 1 h, cells were incubated overnight with monoclonal 8C4 anti-HIV-1 RT antibody (AIDS Research Reference Reagent Program, NIH) (diluted 1:100 in PBS-BSA 1%), followed by Alexa-555 anti-mouse (Molecular Probes).
Immunofluorescence detection of HIV-1 RT and FITC-PAW was performed by epifluorescence microscopy using a PL APO 1.4 oil PH3 objective on a LEICA DMRA 1999 microscope. 3D reconstitution of the 20 frames realized from z stacking was performed using Imaris 6.0 software.
Cells were grown on acid-treated glass coverslips to 60% confluence. Once rinsed with PBS, cells were overlaid with preformed complexes and incubated for 40 minutes at 37° C. Cells were then rinsed twice with PBS and fixed […] at Room Temperature) (RT° in Paraformaldehyde 4%, and washed three times in PBS+2% BSA. They were then permeabilised by incubation 10 min RT° in PBS+0.5% Triton X-100, washed again 3 times in PBS+2% BSA. After blocking 20 min in the same solution, the coverslips were placed in a humid chamber, overlaid with 75 μl of primary antibody against Integrase, and incubated for 2 h at 37° C. Coverslips were then rinced once with PBS and incubated with 75 μl of anti rabbit antibody diluted 1/10000 in PBS. After immobilisation on the cover using Prolong Gold antifade reagent, cellular localization of Integrase as well as FITC-labelled peptides was monitored by fluorescence microscopy, using a PL APO 1.4 oil PH3 objective on a LEICA DMRA 1999 microscope. […]

HIV-1 RT [2] = target: T2, HIV-1 RT (Human immunodeficiency virus type 1 group M subtype B, UniProt P03366); assay: biochemical
T2 construct: The heterodimeric p66/p51 RT was eluted with an imidazole gradient; p66 and p51 derived from p66 by proteolytic cleavage of the C-terminal RNAse H domain; made in house; host or cells: E. coli (M15 for the His-tagged subunits)
Description: RNA-dependent-DNA RT-polymerase activity was measured in a standard reaction assay using poly(rA)-(dT)15 as template/primer as described in Restle et al. (1990). Ten microliters of reverse transcriptase (RT) at 20 nM was incubated at 37° C. for 30 min with 20 μL of reaction buffer (50 mM Tris, pH 8.0, 80 mM KCl, 6 mM MgCl2, 5 mM DTT, 0.15 μM poly(rA-dT), 15 μM dTTP, 0.3 μCi 3H-dTTP). For peptide evaluation, HIV-1 RT was incubated with increasing concentrations of peptide inhibitors for […], and polymerase reaction was initiated by adding reaction buffer. Reactions were stopped by precipitation of nucleic acids with 5 ml of 20% trichloroacetic acid (TCA) solution for 2 h on ice, then filtered using a multiwell-sample collector (Millipore), and washed with 5% TCA solution. Filters were dried at 55° C. for 30 min and radionucleotide incorporation was determined by liquid scintillation spectrometry.
A series of peptides have been derived from Pep-A sequence (SEQ ID NO: 28), which is derived from HIV-1 reverse transcriptase. First, P1 peptide (SEQ ID NO: 1) was obtained by removing the N-terminal arginine of Pep-A. Then, additional peptides were generated by performing an alanine scan on P1. P1-derived peptides were evaluated using a standard polymerase RT assay. Reported data correspond to the mean of three separate experiments.

HIV-1 RT [3] = target: T2, HIV-1 RT; assay: RT dissociation kinetics with bis-ANS, stopped flow; conditions: read-out: dissociation rate constant kdis of RT
Description: Dissociation kinetics of HIV-1 RT were monitored by using 4,4′-Bis(1-anilinonaphthalene 8-sulfonate (bis-ANS) as extrinsic probe. Changes in bis-ANS fluorescence provide a good signal to probe variation in the exposure of the hydrophobic regions associated to RT dissociation in a time-dependent manner. 0.5 μM of RT was dissociated in presence of 0.8 μM of bis-ANS, by adding 10% acetonitrile in the absence or in the presence of 10 μM PAW. Kinetics of dissociation were monitored by following fluorescence resonance energy transfer between tryptophan residues of RT and bis-ANS. Excitation of RT-Trp residues was performed at 290 nm and the increase of bis-ANS fluorescence emission at 490 nm was detected through a 420 nm cut-off filter. Data acquisition and analysis were performed using KinetAsyst 3 software (Hi-Tech Scientific, Salisbury, England-UK) and traces were fitted according to a single exponential equation.

[4] = system: uninfected PHA-P-activated PBMC; assay: Cytotoxicity, MTT assay in uninfected PBMC; assay type: cell-based
Description: The anti-HIV activities of the peptides were assayed according to the methods described in Roisin et al. (2004). Phytohemagglutinin-P(PHA-P)-activated peripheral blood mononuclear cells (PBMC) treated by increasing concentrations of peptide (from 100 to 0.1 nM), one hour later, were infected with hundred 50% tissue culture infectious doses (TCID50) per 100,000 cells of the HIV-1-LAI strain (Barre-Sinoussi et al., 1983). This virus was amplified in vitro on PHA-P-activated PBMC. Viral stock was titrated using PHA-P-activated PBMC, and 50% TCID50 were calculated using Kärber's formula (Kärber, 1931). Samples were maintained throughout the culture, and cell supernatants were collected at day 7 post-infection and stored at −20° C. Viral replication was measured by quantifying reverse transcriptase (RT) activity in cell culture supernatants. In parallel, cytotoxicity of the compounds was evaluated in uninfected PHA-P-activated PBMC by colorimetric 3-(4-5 dimethylthiazol-2-yl)2,5diphenyl tetrazolium bromite (MTT) assay on day 7 (as described in Mossmann, 1983). Experiments were performed in triplicate and repeated with another blood donor. […]

RT:p/t = target: T3, RT:p/t (Human immunodeficiency virus type 1 group M subtype B, UniProt P03366); assay: Steady-state fluorescence titration, PAW binding to RT:p/t; design: species or system HIV-1
T3 construct: The heterodimeric p66/p51 RT was eluted with an imidazole gradient; p66 and p51 derived from p66 by proteolytic cleavage of the C-terminal RNAse H domain; made in house; host or cells: E. coli (M15 for the His-tagged subunits)
Description: (§1) Fluorescence experiments were performed in buffer containing 50 mM Tris-HCl, pH 8.0, 50 mM KCl, 10 mM MgCl2 and 1 mM DTT, at 25° C., using a SPEX-PTI spectrofluorimeter in a 1 cm path-length quartz cuvette, with a band-pass of 2 nm for excitation and emission, respectively. Excitation was performed at 492 nm and emission spectra were recorded from 500 to 600 nm. According fluorescence experiments, a fixed concentration of FAM-labelled (19/36) p/t (50 nM) or of FITC-PAW (200 nM) was titrated with increasing protein concentrations from 5 nM to 1 μM. Data were fitted as described in Agopian et al. (2007) and Rittinger et al. (1995), using a quadratic equation (GraFit, Erithacus Software).

HIV-1 p51 = target: T4, HIV-1 p51 (Human immunodeficiency virus type 1 group M subtype B, UniProt P03366); assay: Size exclusion chromatography of p51 dimerization; conditions: p51 3.5 μM, FITC-labelled PAW 20 μM, 1 h
T4 construct: His; made in house; host or cells: E. coli M15
Description: Chromatography was performed using one (Phenomenex 53000) or two HPLC columns in series (Phenomenex 53000 followed by Phenomenex 52000; both 7.5 mm×300 mm). Samples containing 3 to 10 μM of RT or p51 were applied onto one or two HLPC columns and eluted with 200 mM potassium phosphate (pH: 7.0) at a flow rate of 0.5 ml·min^−1 (5).

heterodimeric RT = target: T5, heterodimeric RT (Human immunodeficiency virus type 1 group M subtype B, UniProt P03366); assay: Steady-state fluorescence titration of FITC-PAW with RT; design: species or system HIV-1; conditions: 200 nM FITC-PAW titrated with RT; read-out: dissociation constant (Kd), binding to heterodimeric RT
T5 construct: The heterodimeric p66/p51 RT was eluted with an imidazole gradient; p66 and p51 derived from p66 by proteolytic cleavage of the C-terminal RNAse H domain; made in house; host or cells: E. coli (M15 for the His-tagged subunits)
Description: as §1

HIV-1 integrase [5] = target: T6, HIV-1 integrase (Human immunodeficiency virus type 1 group M subtype B, UniProt P04585); assay: IN 3′-processing activity, gel-electrophoresis procedure; assay type: biochemical; conditions: read-out: IC50 3′-proc
T6 construct: Integrase is a 32 kDA viral protein that is biologically active under a multimeric form
Description: In order to verify the influence of the fluorescent probe attached to PAW on the peptide-integrase interaction, a standard gel-electrophoresis procedure (as described in Smolov et al., 2006) was carried out to examine the IN 3′-processing activity as a function of either unlabeled or fluorescein-labeled PAW concentration.

HIV-1 integrase [6] = target: T7, HIV-1 integrase (Human immunodeficiency virus type 1 group M subtype B, UniProt P12497); assay: Integrase pull-down with CNBr Sepharose beads; assay type: binding; conditions: H9 or HeLa HA-IN cell lysates, western blotting
T7 construct: expressed in transfected cells; host or cells: H9 cells with pNL4.3 V-R+; HeLa cells stably expressing HA-tagged IN
Description: Peptides were resuspended in buffer A (1 mg/ml), sonicated 4 min, and incubated with 500 μl (gel volume) of activated CNBr-activated Sepharose 4B sepharose© beads at 4° C. overnight. After centrifugation, supernatants were removed and the beads were incubated with Glycine pH.8 for 2 hours at 4° C. with gentle stirring. The sedimented Sepharose beads were then washed in 0.1 M Sodium Acetate buffer (pH 4), 0.5 M Bicarbonate buffer, and finally in PBS, three times each. The peptides bound to the beads were then saturated for 30 minutes in PBS BSA 0.1% and then incubated for 1 h at 4° C. with equal amounts of cell lysate (H9 or Hela-IN) prealably lysed for 30 min on ice in Lysis buffer (Tris 20 mM, pH 7.2, NaCl 400 mM, EDTA 1 mM, DTT 1 mM, Protease inhibitors EDTA free (Roche Diagnostics) and sonicated twice for 5 sec. at 20%. Beads were washed once in Lysis buffer, and twice in PBS. They were finally resuspended in Laemli blue, migrated on 15% SDS-PAGE gels and analysed by Western Blotting.

## GTKALTAVIPLTEEAE [Peptide P8]
HIV-1 RT [1]
  stable complex with RT, retention of RT on beads: no RT was associated
HeLa cells
  entry of free peptide into cells: not able to enter cells alone
HIV-1 RT [2]
  Ki: 57 ± 19 µM
HIV-1 RT [2]; relative to P1
  reduction of efficiency of the peptide in comparison to P1: 8 fold

## GTKWLTEWIPLTAEAE-NH2 [PAW]
HIV-1 RT [3]
  koff: 1.42 ± 0.007 s⁻¹
[4]
  toxic effect: without any toxic effect
HeLa cells
  entry of free peptide into cells: not able to enter cells alone

## GTKWLTEWIPLTAEAEC-FITC [PAW-FITC]
RT:p/t
  lower Kd of labelled FITC-PAW over unlabelled peptide: 5.6 fold
RT:p/t; FITC-PAW fluorescence quenching, read-out: Kd, FITC-PAW binding to RT first incubated with DNA/DNA p/t
  Kd: 7.1 ± 2.8 nM
RT:p/t; relative to RT without p/t
  increase of affinity for RT in the presence of p/t: 5 fold
HIV-1 p51
  p51 dimeric and associated to PAW: 4.6%
Heterodimeric RT
  Kd: 33 ± 10 nM
HIV-1 integrase [5]
  IC50: 10000 nM
HeLa cells; complexed with Pep-1 at 1/10 molar ratio
  time to enter cells: less than 1 h
HeLa cells
  entry of free peptide into cells: poorly enters
HIV-1 RT [2]; Dixon plot, mean of three separate experiments, read-out: Ki (μM), inhibition of polymerase activity of HIV-1 RT
  Ki: 2.7 ± 0.7 µM
HIV-1 RT [2]; relative to PAW
  reduction of efficiency (higher Ki) relative to PAW: 3.8 fold

## Pep-7: decapeptide (SEQ ID NO: 32) mimicking p66/p51 interface that prevents reverse transcriptase-dimerization (KETWETWWTE; Pep-7 ; described in Morris et al., 1999, JBC, 274, 24941-24946)
HIV-1 integrase [6]
  interaction with IN in pull-down: does not bind IN

Source: patent US20110294728A1, “Antiviral Polypeptides” (priority 2008, published 2011)
